Entries after “also recorded” stand apart in the source; their conditions may differ. Where two headings read alike, the source gives them in different places.

Data set [1] concerns HBV. Kind of data set: Inhibition of HBV infection of non-adherent HepG2/NTCPA3 cells (intracellular HBV RNA, real-time qRT-PCR). Type of data set: cell-based, Hepatitis B virus (genotype D). To be noted: for IC50: Hepatitis B virus, read-out: IC50 (anti-HBV activity); for Selectivity Index: SI from CC50 and IC50. On the procedure: In the case of the non-adherent cell conditions of infection, HepG2 cells, the derived cells, or differentiated HepaRG cells were harvested using 0.25% trypsin/ethylenediaminetetraacetic acid (EDTA) solution (Sigma). After washing once with 10% FBS-DMEM, the resulting cells were suspended in the primary hepatocyte maintenance medium (PMM) consisting of William’s E medium (Sigma) supplemented with 2 mM L-glutamine, 5 μg/ml transferrin (Sigma), 10 ng/ml recombinant human epidermal growth factor (PeproTech, Rocky Hill, NJ, USA), 3 μg/ml insulin, 18 μg/ml hydrocortisone, 40 ng/ml dexamethasone (Sigma), 5 ng/ml sodium selenite (Sigma), 2% DMSO (Wako), 100 U/ml penicillin, and 100 μg/ml streptomycin (Gibco). The suspended cells (1.25 × 10^5 cells) were added to each well following the addition of virus, and were then immediately mixed well in 0.5 ml of PMM supplemented with 4% polyethylene glycol (PEG) 8000 (Sigma) and 2% FBS in each well of a 24-well collagen-coated plate. The resulting mixtures were incubated at 37 °C (0 days post-infection, dpi).
The cells infected in non-adherent or adherent phase were washed three times with phosphate-buffered saline (PBS) at 1 dpi and incubated in fresh PMM supplemented with 10% FBS. The cells were re-seeded at 2 dpi at a density of 2 × 10^4 cells/well (48-well collagen-coated plate) or 4 × 10^4 cells/well (24-well collagen-coated plate) and maintained in PMM supplemented with 10% FBS. The cells and the culture supernatants were collected at each indicated dpi in order to evaluate the amounts of viral proteins, RNA, and DNA.
Simvastatin, proscillaridin A, bufalin, convallatoxin, digitoxin, digoxin, and azelastine were purchased from Sigma. Fluvastatin was from Cayman Chemical Co. (Ann Arbor, MI, USA). The lipopeptide myr-47WT, which is an N-terminally myristoylated peptide consisting of aa 2 to 47 of the preS1 region of HBV, and myr-47N9K, in which Asn at the 9th position is substituted with Lys, were synthesized by Scrum Co. (Tokyo, Japan)[11]. […] These cells (1 × 10^6 cells/ml) were preincubated at room temperature for 1 h in PMM supplemented with a peptide at 400 nM or a compound at the indicated concentration, and were then infected with HBV at 1,000 GEq/cell in the presence of the preS1 peptide or compounds at the same concentration as in the preincubation. The resulting cells were washed three times with PBS at 1 dpi and incubated in fresh PMM supplemented with 10% FBS. Cells were then re-seeded at 2 dpi at a density of 2 × 10^4 cells/well (48-well plate) or 4 × 10^4 cells/well (24-well plate) and maintained in PMM supplemented with 10% FBS. The resulting cells and culture supernatants were collected at each indicated dpi in order to evaluate viral RNA and DNA.
(§1) Total RNA was extracted using the RNeasy Mini Kit (Qiagen, Valencia, CA, USA), followed by DNase digestion using the TURBO DNA-free kit (Ambion, Austin, TX, USA). The resulting RNA preparation was reverse-transcribed using ReverTra Ace qPCR RT Master Mix (TOYOBO, Tokyo, Japan) according to the manufacturer’s protocol. Viral DNA was extracted from culture supernatants using the QIAamp DNA Mini Kit (Qiagen) according to the manufacturer’s protocol. The amounts of viral DNA and RNA were measured by real-time quantitative PCR (qPCR) and real-time quantitative reverse transcriptase (qRT)-PCR, respectively. The amounts of intracellular HBV RNA and supernatant HBV DNA were estimated according to the method described by Yan et al.[11]. The amounts of NTCP and GAPDH mRNAs were estimated by real-time qRT-PCR using the primer pairs 5′-[…]-3′ and 5′-[…]-3′, and 5′-[…]-3′ and 5′-[…]-3′, respectively. Real-time PCR was carried out using the Fast SYBER Green Master Mix (Applied BioSystems) and StepOne Plus Real-Time PCR System (Applied BioSystems). The amounts of HBs and HBe antigens in culture supernatants were estimated by a chemiluminescent immunoassay (SRL Inc., Tokyo, Japan).
Supplementary Figure 4. […]
Background: Real-time PCR tracks product formation cycle by cycle.

The nature of data set [2]: in vitro. The following applies: human. On the procedure:
(§2) Cell viability was evaluated using the MTS assay system (CellTiter 96 AQueous One Solution Cell Proliferation Assay, Promega, Madison, WI, USA).
(§3) real-time qRT-PCR in cells harvested at 6 dpi (black bars). Cell viability was measured
(§4) by the MTS assay (black line with a triangle). i. […]
(§5) non-adherent phase (black columns) in the presence of 0, 10 or 30 nM proscillaridin A. […]

In data set [3] the test system is HepG2/NTCPA3 cells. Put plainly: in vitro. On the procedure:
as §2, §3, §4, §5

The target of data set [4] is T1, NTCP (Homo sapiens, UniProt Q14973).
T1 construct: expressed in transfected cells; plasmid pEF pGKpuro, puromycin selection
T1 sequence (Q14973 1-349): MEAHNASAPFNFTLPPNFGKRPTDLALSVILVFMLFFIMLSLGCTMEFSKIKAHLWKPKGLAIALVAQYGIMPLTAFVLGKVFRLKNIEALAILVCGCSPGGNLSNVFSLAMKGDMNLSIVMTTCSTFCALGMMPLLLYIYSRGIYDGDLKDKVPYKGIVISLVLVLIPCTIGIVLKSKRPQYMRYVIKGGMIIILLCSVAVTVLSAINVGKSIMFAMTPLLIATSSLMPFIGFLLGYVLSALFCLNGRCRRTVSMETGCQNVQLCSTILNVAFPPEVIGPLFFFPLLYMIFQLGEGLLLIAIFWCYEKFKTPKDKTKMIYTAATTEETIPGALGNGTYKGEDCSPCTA
Put plainly: Competitive binding assay: compounds versus myr-47WT binding to HepG2/NTCPA3 cells (FACS). To be noted: compounds at 10 μM (proscillaridin A 10 to 100 μM). The procedure:
After washing twice with 2% FBS/PBS, the resulting cells were analyzed by FACS analysis.
Supplementary Figure 5. Effects of compounds on the binding ability of preS1 lipopeptide to HepG2/NTCPA3 cells. a and b. HepG2/NTCPA3 cells were pretreated with DMSO for 30 min and then were treated with myr-47N9K (a) or myr-47WT (b) in the presence of DMSO for an additional 30 min. The resulting cells were subjected to FACS analysis. c to h. HepG2/NTCPA3 cells were pretreated with the indicated concentration of each compound for 30 min and then were treated with myr-47WT in the presence of each compound for an additional 30 min. […]
fluvastatin (d), proscillaridin A (e, f and g), and azelastine (h) on preS1 binding were analyzed using FACS analysis, as described in the Materials and Methods section.
(1 picture or pasted object on this page, not shown here)

Data set [5] concerns HBV. Kind of data set: Effect on HBV replication, compound added after infection (intracellular HBV RNA). Type of data set: cell-based, Hepatitis B virus (genotype D). The following applies: compound added at 3 dpi, harvested at 6 dpi, HepG2/NTCPA3, HBV 1,000 GEq/cell. The procedure:
The resulting cells were harvested at 6 dpi. The amount of intracellular HBV RNA was quantified by real-time qRT-PCR (black bars) and is presented as the percentage of the control value (DMSO). Cell viability was evaluated (gray bars). Data were calculated from 3 to 5 independent experiments and are expressed as means ± SD.
as §1, with “The amounts of HBs and HBe antigens in culture supernatants were estimated by a chemiluminescent immunoassay (SRL Inc., Tokyo, Japan).” left out

For data set [6], the system named is NTCP. To be noted: read-out: IC50 for inhibition of NTCP-mediated taurocholic acid uptake; cited from earlier work.
For data set [7], the system named is HBV. Put plainly: Supernatant HBe antigen after HBV infection in the presence of compound (chemiluminescence immunoassay). Type of data set: cell-based, Hepatitis B virus (genotype D). To be noted: non-adherent HepG2/NTCPA3 cells, HBV 1,000 GEq/cell, supernatant at 12 dpi. On the procedure:
as §1
Cell viability was measured
Culture supernatants were collected at
antigen was quantified by a chemiluminescence immunoassay. j. HepG2/NTCPA3 cells

Setting [8] is: non-adherent HepG2/NTCPA3 cells, HBV 1,000 GEq/cell, compound from 1 h pre-infection to 1 dpi, HBV RNA at 6 dpi.
Where [9] appears, read: non-adherent HepG2/NTCPA3 cells, compound from 1 h pre-infection to 1 dpi.

Regarding `CN1CCCC(n2nc(Cc3ccc(Cl)cc3)c3ccccc3c2=O)CC1` (stereo not drawn) [Azelastine], the IC50 (in general, the concentration needed to halve the response being measured) in data set [1] (setting [8]) was greater than 30 µM. Also, the “Inhibitory effect on HBV infection (in words)” value in data set [1] (at 0.01 to 1 μM, non-adherent HepG2/NTCPA3 cells) is “moderate and significant inhibitory effects”. In data set [2], this compound had a CC50 greater than 30 µM.

In the case of `C[C@]12CC[C@H](O)C[C@H]1CC[C@@H]1[C@@H]2CC[C@]2(C)[C@@H](c3ccc(=O)oc3)CC[C@]12O` [Bufalin], the half-inhibitory concentration (IC50) in data set [1] (HepG2, 1 h) was 0.0324 ± 0.0113 µM. Besides, in data set [1], the “Selectivity Index” value is recorded as 15.8 ± 4.3. Moreover, the “Inhibition of HBV infection (in words)” value in data set [1] (setting [9]) was “inhibited HBV infection in a dose-dependent manner”; in data set [1] (non-adherent HepG2/NTCPA3 cells, compound from 1 h pre-infection to 1 dpi, listed as bufalin), “inhibited HBV infection”. Moreover, the CC50 in data set [2] amounted to 0.479 ± 0.0647 µM.

As to `C[C@@H]1O[C@@H](O[C@H]2CC[C@]3(C=O)[C@H]4CC[C@]5(C)[C@@H](C6=CC(=O)OC6)CC[C@]5(O)[C@@H]4CC[C@]3(O)C2)[C@H](O)[C@H](O)[C@H]1O` [Convallatoxin], the IC50 in data set [1] (HepG2, 1 h) worked out at 0.0107 ± 0.0036 µM. Moreover, the “Selectivity Index” value in data set [1] is recorded as 15.7 ± 4.7. Besides, the “Inhibition of HBV infection (in words)” value in data set [1] (setting [9]) is “inhibited HBV infection in a dose-dependent manner”. In addition, the CC50 in data set [2] is 0.156 ± 0.0538 µM.

In the case of `C[C@H]1O[C@@H](O[C@H]2[C@@H](O)C[C@H](O[C@H]3[C@@H](O)C[C@H](O[C@H]4CC[C@@]5(C)[C@H](CC[C@@H]6[C@@H]5CC[C@]5(C)[C@@H](C7=CC(=O)OC7)CC[C@]65O)C4)O[C@@H]3C)O[C@@H]2C)C[C@H](O)[C@@H]1O` [Digitoxin], the IC50 in data set [1] (setting [8]) turned out to be 0.0933 ± 0.0153 µM. In data set [1], the “Selectivity Index” value stood at 18.9 ± 3.4. Further, the “Inhibition of HBV infection (in words)” value in data set [1] (setting [9]) was “inhibited HBV infection in a dose-dependent manner”. The compound also registered a CC50 in data set [2] of 1.73 ± 0.384 µM.

Turning to `C[C@H]1O[C@@H](O[C@H]2[C@@H](O)C[C@H](O[C@H]3[C@@H](O)C[C@H](O[C@H]4CC[C@@]5(C)[C@H](CC[C@@H]6[C@@H]5C[C@@H](O)[C@]5(C)[C@@H](C7=CC(=O)OC7)CC[C@]65O)C4)O[C@@H]3C)O[C@@H]2C)C[C@H](O)[C@@H]1O` [Digoxin], in data set [1] (setting [8]), the IC50 is greater than 0.1 µM. Moreover, the “Inhibition of HBV infection (in words)” value in data set [1] (setting [9]) is given as “did not inhibit HBV infection”. In data set [2], this compound showed a CC50 of 1.43 ± 0.277 µM.

In the case of `CC(C)n1c(/C=C/C(O)CC(O)CC(=O)O)c(-c2ccc(F)cc2)c2ccccc21` (stereo not drawn) [Fluvastatin], in data set [1] (setting [8]), the 50% inhibitory concentration (IC50) was greater than 30 µM. The “Inhibition of HBV infection (in words)” value in data set [1] (setting [9]) is recorded as “did not inhibit; also recorded: not by treatment with fluvastatin”. Moreover, in data set [3], the “Cytotoxicity (in words)” value is given as “not cytotoxic”. The compound also displayed a CC50 in data set [2] greater than 100 µM.

For `C[C@@H]1O[C@@H](O[C@@H]2C=C3CC[C@@H]4[C@H](CC[C@]5(C)[C@@H](c6ccc(=O)oc6)CC[C@]45O)[C@@]3(C)CC2)[C@H](O)[C@H](O)[C@H]1O` [Proscillaridin A], in data set [4], the “Effect on binding of myr-47WT (200 nM) to the cell surface of HepG2/NTCPA3” value was “negligible effect”. Also, the “Amount of HBV RNA in cells treated after infection” value in data set [5] is recorded as “not decreased; also recorded: did not exhibit an inhibitory effect on the viral replication”. The “Anti-HBV effect in non-adherent cells compared with adherent cells” value in data set [1] (0, 10 or 30 nM, HBV 1,000 GEq/cell, HBV RNA) is “similar”. Further, the IC50 was 0.0072 ± 0.0025 µM in data set [1] (setting [8]) and 22 µM in data set [6]. For the same compound, in data set [1], the “Selectivity Index” value came out at 75.5 ± 26.7. In addition, the “Inhibition of HBV infection (in words)” value in data set [1] (setting [9]) is reported as “inhibited HBV infection”. Moreover, the CC50 in data set [2] stood at 0.496 ± 0.14 µM. Moreover, in data set [7], the “Amount of supernatant HBe antigen” value is listed as “reduced”.

Consider `CCC(C)(C)C(=O)O[C@H]1C[C@@H](C)C=C2C=C[C@H](C)[C@H](CC[C@@H]3C[C@@H](O)CC(=O)O3)[C@H]21` [Simvastatin], for which the “Amount of HBV RNA in cells treated after infection” value in data set [5] is “not decreased; also recorded: did not exhibit an inhibitory effect on the viral replication”. Besides, the “Inhibition of HBV infection (in words)” value in data set [1] is “inhibited HBV infection”. Moreover, in data set [1] (HepG2, 1 h), the IC50 turned out to be 5.2 ± 0.6 µM. Further, in data set [2], the CC50 was greater than 30 µM.

The values above are taken from PMC4655410, “Hepatitis B virus efficiently infects non-adherent hepatoma cells via human sodium taurocholate cotransporting polypeptide” (Scientific Reports, 2015).
